Measured values from patent US10526327B2, “Histone demethylase inhibitors” (CELGENE QUANTICEL RESEARCH, INC., priority 2013, dated 2020).

Key:
Jarid1A = target: T1, Jarid1A (Homo sapiens, UniProt P29375); test: Jarid1A in vitro enzyme inhibition assay (TR-FRET); assay type: biochemical
T1 construct: purchased BPS Bioscience 50110
T1 sequence (P29375 1-1090): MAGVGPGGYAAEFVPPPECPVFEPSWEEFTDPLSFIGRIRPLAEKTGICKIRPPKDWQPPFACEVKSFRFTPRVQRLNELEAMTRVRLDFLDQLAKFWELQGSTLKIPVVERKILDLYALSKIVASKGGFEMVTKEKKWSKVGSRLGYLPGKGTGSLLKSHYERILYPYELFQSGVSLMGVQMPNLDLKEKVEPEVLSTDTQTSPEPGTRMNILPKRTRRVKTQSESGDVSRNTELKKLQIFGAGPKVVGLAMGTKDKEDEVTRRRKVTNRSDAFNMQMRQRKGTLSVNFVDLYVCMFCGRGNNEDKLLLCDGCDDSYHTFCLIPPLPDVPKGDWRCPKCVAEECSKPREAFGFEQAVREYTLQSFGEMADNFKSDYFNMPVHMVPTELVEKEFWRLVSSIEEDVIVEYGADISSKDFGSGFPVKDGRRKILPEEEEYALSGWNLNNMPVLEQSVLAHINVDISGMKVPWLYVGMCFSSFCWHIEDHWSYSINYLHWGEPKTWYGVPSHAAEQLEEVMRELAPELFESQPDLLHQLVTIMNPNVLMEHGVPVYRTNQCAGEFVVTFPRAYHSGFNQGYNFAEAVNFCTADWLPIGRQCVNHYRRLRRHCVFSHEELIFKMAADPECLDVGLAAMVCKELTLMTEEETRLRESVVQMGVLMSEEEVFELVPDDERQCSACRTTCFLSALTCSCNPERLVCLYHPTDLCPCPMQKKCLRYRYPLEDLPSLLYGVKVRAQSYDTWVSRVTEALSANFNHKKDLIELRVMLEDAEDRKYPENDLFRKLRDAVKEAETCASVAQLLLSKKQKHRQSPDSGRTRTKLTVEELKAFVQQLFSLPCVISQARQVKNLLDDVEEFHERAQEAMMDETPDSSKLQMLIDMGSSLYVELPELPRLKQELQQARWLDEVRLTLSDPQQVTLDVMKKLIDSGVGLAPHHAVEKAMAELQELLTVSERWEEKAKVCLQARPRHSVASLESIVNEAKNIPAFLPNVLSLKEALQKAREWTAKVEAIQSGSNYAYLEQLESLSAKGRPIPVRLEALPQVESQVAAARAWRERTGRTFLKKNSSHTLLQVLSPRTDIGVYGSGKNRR
Source text: This assay determines the ability of a test compound to inhibit Jarid1A, Jarid1B, and JMJD2C demethylase activity. Baculovirus expressed Jarid1A (GenBank Accession #NM_001042603, AA1-1090) was purchased from BPS Bioscience (Cat#50110). Baculovirus expressed Jarid1B (GenBank Accession #NM_006618, AA 2-751) was purchased from BPS Bioscience (Cat #50121) or custom made by MolecularThroughput. Baculovirus expressed JMJD2C (GenBank Accession #BC143571, AA 2-372) was purchased from BPS Bioscience (Cat#50105).
The enzymatic assay of Jarid1A activity is based upon Time Resolved-Fluorescence Resonance Energy Transfer (TR-FRET) detection. The ability of test compounds to inhibit the activity of Jarid1A was determined in 384-well plate format under the following reaction conditions: 1 nM Jarid1A, 300 nM H3K4me3-biotin labeled peptide (Anaspec cat #64357), 2 μM alpha-ketoglutaric acid in assay buffer of 50 mM HEPES, pH7.3, 0.005% Brij35, 0.5 mM TCEP, 0.2 mg/ml BSA, 50 μM sodium L-ascorbate, and 2 μM ammonium iron(II) sulfate. Reaction product was determined quantitatively by TR-FRET after the addition of detection reagent Phycolink Streptavidin-allophycocyanin (Prozyme) and Europium-anti-mono-or di-methylated histone H3 lysine 4 (H3K4me1-2) antibody (PerkinElmer) in the presence of 5 mM EDTA in LANCE detection buffer (PerkinElmer) at a final concentration of 25 nM and 1 nM, respectively.
The assay reaction was initiated by the following: 2 μl of the mixture of 900 nM H3K4me3-biotin labeled peptide and 6 μM alpha-ketoglutaric acid with 2 μl of 11-point serial diluted inhibitor in 3% DMSO was added to each well of plate, followed by the addition of 2 μl of 3 nM Jarid1A to initiate the reaction. The reaction mixture was incubated at room temperature for 30 minutes, and terminated by the addition of 6 μl of 5 mM EDTA in LANCE detection buffer containing 50 nM Phycolink Streptavidin-allophycocyanin and 2 nM Europium-anti-H3K4me1-2 antibody. Plates were read by EnVisionMultilabel Reader in TR-FRET mode (excitation at 320 nm, emission at 615 nm and 665 nm) after 1 hour incubation at room temperature. A ratio was calculated (665/615) for each well and fitted to determine inhibition constant (IC50).

KDM5A/B = test: In vitro cell-based assay: immuno-blot quantification of tri-methyl H3K4 in ZR-75-1 breast cancer cells; settings: 72 hours, tri-methyl H3K4 level relative to GAPDH, percent of DMSO, read-out: Cellular IC50
Source text: An assay to measure the degree of cellular inhibition of KDM5A and 5B was developed. This quantitative immuno-blotting assay measures the amount tri-methylated histone H3 at amino acid Lysine number 4, a specific substrate […] of the direct enzymatic activity of the histone demethylases KDM5A and KDM5B from extracts of the ZR-75-1 breast cancer cell line.
This assay is a fluorometric immunoassay for the quantification of tri-methyl H3K4 extracted from cells treated with test compound and is used as a measure of the cellular inhibition of KDM5A/B.
ZR-75-1 (PTEN null, ER+) breast cancer cells numbering 50,000 (ATCC) were seeded into each well of a 96-well tissue culture treated plate and then exposed to an 11 point dilution of test compound with final concentration ranges of test compound ranging from 1250 μM to 10 nM. Cells were left in the presence of test compound for 72 hours. Extracts were prepared containing all of the cellular histone material using detergent based lysis and sonication methods. These lysates were subsequently normalized for total protein content using a colorimetric bicinchonic acid assay (MicroBCA Pierce/Thermo Scientific). Normalized cell extracts were then subjected to typical immuno-blotting procedures using NuPage reagents (Life Technologies). Electrophoretically separated histones were then transferred and immobilized using polyvinylidene difluoride membrane (Immobilon-FL Millipore). The amount of tri-methylated lysine 4 of histone H3 was detected using an antibody specific to the tri-methylated state (Cell Signaling Technologies) and quantified on an infrared imager using a densitometry software package (Odyssey CLx, Image Studio, Li-Cor). This background subtracted densitometry value was reported as a ration of the GAPDH amount for that sample and then calculated as a percent of the DMSO treated sample. The software package XL-fit (IDBS) was then used to calculate a relative IC50 value for the dilution series of a given test compound according to the equation: fit=(D+((Vmax*(x^n))/((x^n)+(Km^n)))).

Row | SMILES | IC50 (Jarid1A) | IC50 (KDM5A/B)
1 | Oc1nc(Oc2ccc(Cl)cc2)nc2cnccc12 [Example 49, 2-(4-chlorophenoxy)pyrido[3,4-d]pyrimidin-4-ol] | ≤ 100 nM | > 10000 nM
2 | CN(C)c1cccc(Oc2nc(O)c3ccncc3n2)c1 [Example 50, 2-[3-(dimethylamino)phenoxy]pyrido[3,4-d]pyrimidin-4-ol] | ≤ 100 nM | > 10000 nM
3 | Oc1nc(Oc2cccc(C(F)(F)F)c2)nc2cnccc12 [Example 52, 2-[3-(trifluoromethyl)phenoxy]pyrido[3,4-d]pyrimidin-4-ol] | ≤ 100 nM | 1000 to 10000 nM
4 | COc1ccc(Oc2nc(O)c3ccncc3n2)cc1F [Example 53, 2-(3-fluoro-4-methoxyphenoxy)pyrido[3,4-d]pyrimidin-4-ol] | ≤ 100 nM | 1000 to 10000 nM
5 | CCCn1cc(Oc2nc(O)c3ccncc3n2)cn1 [Example 54, 2-(1-propylpyrazol-4-yl)oxypyrido[3,4-d]pyrimidin-4-ol] | ≤ 100 nM | 1000 to 10000 nM
6 | CC(C)CCn1cc(Oc2nc(O)c3ccncc3n2)cn1 [Example 55, 2-{[1-(3-methylbutyl)pyrazol-4-yl]oxy}pyrido[3,4-d]pyrimidin-4-ol] | ≤ 100 nM | 1000 to 10000 nM
7 | Oc1nc(Oc2cnn(C3CCCC3)c2)nc2cnccc12 [Example 56, 2-[(1-cyclopentylpyrazol-4-yl)oxy]pyrido[3,4-d]pyrimidin-4-ol] | ≤ 100 nM | 1000 to 10000 nM
8 | CCc1cccc(Oc2nc(O)c3ccncc3n2)c1 [Example 57, 2-(3-ethylphenoxy)pyrido[3,4-d]pyrimidin-4-ol] | ≤ 100 nM | > 10000 nM
9 | Oc1nc(Oc2cnn(Cc3ccccc3)c2)nc2cnccc12 [Example 66, 2-[(1-benzyl-1H-pyrazol-4-yl)oxy]pyrido[3,4-d]pyrimidin-4-ol] | ≤ 100 nM | 1000 to 10000 nM
10 | CCOc1nc(O)c2ccnc(-c3cn(C)cn3)c2n1 [Example 69, 2-ethoxy-8-(1-methyl-1H-imidazol-4-yl)pyrido[3,4-d]pyrimidin-4-ol] | ≤ 100 nM | > 10000 nM
11 | Cn1cnc(-c2nccc3c(O)nc(OCCCC(F)(F)F)nc23)c1 [Example 74, 8-(1-methylimidazol-4-yl)-2-(4,4,4-trifluorobutoxy)pyrido[3,4-d]pyrimidin-4-ol] | ≤ 100 nM | 100 to 1000 nM

Other lines, results leading:

Row | IC50 (Jarid1A) | IC50 (KDM5A/B) | SMILES
12 | ≤ 100 nM | 1000 to 10000 nM | Cn1cnc(-c2nccc3c(O)nc(OCC(F)(F)F)nc23)c1 [Example 70, 8-(1-methyl-1H-imidazol-4-yl)-2-(2,2,2-trifluoroethoxy)pyrido[3,4-d]pyrimidin-4-ol]
13 | ≤ 100 nM | 1000 to 10000 nM | Cn1cnc(-c2nccc3c(O)nc(OCc4ccc(F)cc4)nc23)c1 [Example 71, 2-[(4-fluorobenzyl)oxy]-8-(1-methyl-1H-imidazol-4-yl)pyrido[3,4-d]pyrimidin-4-ol]
14 | ≤ 100 nM | 1000 to 10000 nM | Cn1cnc(-c2nccc3c(O)nc(OCC4CC4)nc23)c1 [Example 72, 2-(cyclopropylmethoxy)-8-(1-methylimidazol-4-yl)pyrido[3,4-d]pyrimidin-4-ol]
15 | ≤ 100 nM | > 10000 nM | Cn1cnc(-c2nccc3c(O)nc(OCCO)nc23)c1 [Example 75, 2-(2-hydroxyethoxy)-8-(1-methylimidazol-4-yl)pyrido[3,4-d]pyrimidin-4-ol]
16 | ≤ 100 nM | 1000 to 10000 nM | Oc1nc(Oc2cnn(Cc3ccc(F)cc3)c2)nc2cnccc12 [Example 86, 2-[1-(4-fluorobenzyl)pyrazol-4-yl]oxypyrido[3,4-d]pyrimidin-4-ol]
17 | ≤ 100 nM | 100 to 1000 nM | Oc1nc(Oc2cnn(Cc3ccccc3F)c2)nc2cnccc12 [Example 87, 2-[1-(2-fluorobenzyl)pyrazol-4-yl]oxypyrido[3,4-d]pyrimidin-4-ol]
18 | ≤ 100 nM | 1000 to 10000 nM | CC(C)(C)OC(=O)N1CCC(n2cc(Oc3nc(O)c4ccncc4n3)cn2)CC1 [Example 88, tert-butyl 4-[4-(4-hydroxypyrido[3,4-d]pyrimidin-2-yl)oxypyrazol-1-yl]piperidine-1-carboxylate]
19 | ≤ 100 nM | 1000 to 10000 nM | Oc1nc(Oc2cnn(C3CCNCC3)c2)nc2cnccc12 [Example 89, 2-(1-piperidin-4-ylpyrazol-4-yl)oxypyrido[3,4-d]pyrimidin-4-ol]
